# Non-standard residues stand in square brackets, D forms with d. No end group written: not given here.
# Key:
# [1] = system: IL-8 promoter activity in NCM460 cells expressing human GHS-R; experiment: IL-8 promoter-luciferase assay in GHS-R-expressing NCM460 cells; format: cell-based
# Protocol: Construction of a reporter construct containing 1521 bp (nucleotides −1481 to +40) of the promoter region of human IL-8 gene has been described previously (Warny, M. et al., J. Clin. Invest., 105:1147-1156 (2000)). IL-8 reporter constructs containing mutations in NF-κB, AP-1 or C/EBP sites have been described previously (Zhao, D. et al., J. Biol. Chem., 276:44464-44471 (2001)). […] Firefly and Renilla luciferase activities in cell extracts were measured using Dual-Luciferase Reporter Assay System (Promega). The relative luciferase activity were then calculated by normalizing IL-8 promoter-driven Firefly luciferase activity to control Renilla luciferase activity. […]
# NCM460 cells were transiently transfected with pMMP-HA-GHSR or a control plasmid pMMP-LacZ along with IL-8 promoter-luciferase construct plus an internal control construct. The transfected cells were stimulated with ghrelin for 6 hours and the IL-8 promoter activity was measured.
# To examine whether ghrelin-induced IL-8 gene expression involves the NF-κB pathway, NCM-GHS-R cells were transiently transfected with IL-8-luciferase construct along with an internal control plasmid. […] IL-8 promoter activity was measured. […]
# [2] = system: ghrelin-induced MAP kinase phosphorylation in IEC-GHS-R cells (rat GHS-R); experiment: MAP kinase phosphorylation in IEC-GHS-R cells (western blot, phospho-MAPK antibody); format: cell-based
# Protocol: To examine whether an anti-ghrelin IgG or a GHS-R antagonist [D-lys-3]-GHRP-6 blocks ghrelin-mediated responses in experimental colitis, experiments were first performed to test the efficiency of these reagents using in vitro assays. Since ghrelin was previously shown to activate MAP kinase in human HepG2 cells, the effect of the anti-ghrelin antibody or [D-lys-3]-GHRP-6 on ghrelin-induced MAP kinase activation was determined. For these experiments, rat full-length GHS-R cDNA was cloned from rat brain RNA and then subcloned into the retroviral expression vector pMMP. The retroviruses expressing rat GHS-R were used to infect normal rat intestinal epithelial cell line IEC-6 cells (from ATCC). The resulting cell line was named IEC-GHS-R cells.
# The response of the IEC-GHS-R to rat ghrelin was determined using this MAP kinase assay. Briefly, serum starved IEC-GHS-R cells were treated with ghrelin (10^−7 M) for various times. […]
# To determine the effect of an anti-ghrelin IgG or a GHS-R antagonist [D-lys-3]-GHRP on ghrelin-induced MAPK phosphorylation, IEC-GHS-R cells were pretreated with the anti-ghrelin IgG (2 and 5 μg/ml) or with normal rabbit IgG or [D-lys-3]-GHRP-6 (1-20 nM) for 10 minutes and then treated with rat ghrelin for 5 minutes. MAP kinase phosphorylation was then determined.
# [3] = system: toxin A-induced intestinal fluid secretion; design: species or system mice; details: mouse, in vivo, ip
# food intake = food intake induced by centrally injected ghrelin / GHS-R-induced; cited from earlier work
# GHS-R = target: T1, GHS-R (Rattus norvegicus, UniProt O08725); details: cited from earlier work
# T1 construct: host or cells: CHO cells stably expressing rat GHS-R (inferred, same citation)
# T1 sequence (O08725 whole entry): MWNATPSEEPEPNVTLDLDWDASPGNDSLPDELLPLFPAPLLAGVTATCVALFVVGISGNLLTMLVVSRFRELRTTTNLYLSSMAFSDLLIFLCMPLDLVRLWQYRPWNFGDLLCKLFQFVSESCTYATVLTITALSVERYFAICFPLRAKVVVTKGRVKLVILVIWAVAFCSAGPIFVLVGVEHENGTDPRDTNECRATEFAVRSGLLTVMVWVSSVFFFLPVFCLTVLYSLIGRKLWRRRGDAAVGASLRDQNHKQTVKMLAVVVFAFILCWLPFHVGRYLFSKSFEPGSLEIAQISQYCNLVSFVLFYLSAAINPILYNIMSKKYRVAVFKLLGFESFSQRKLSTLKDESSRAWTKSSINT
# [4] = system: IL-8 secretion in NCM-GHS-R cells; experiment: IL-8 secretion (ELISA) in NCM-GHS-R cells; format: cell-based, human; details: serum starved NCM-GHS-R cells, ghrelin 10^−7 M, various times
# [5] = system: NCM460, HT29 and Caco-2 cells; experiment: IL-8 gene expression in colonic epithelial cell lines with endogenous ghrelin receptor; format: cell-based, human; details: NCM460, HT29, Caco-2 with very low endogenous ghrelin receptor
# [6] = target: human GHS-R with HA epitope (pMMP-HA-GHSR), transiently expressed in NCM460 cells (human) (UniProt Q92847); experiment: cell-based or functional assay
# human GHS-R with HA epitope (pMMP-HA-GHSR), transiently expressed in NCM460 cells (human), sequence (Q92847 whole entry): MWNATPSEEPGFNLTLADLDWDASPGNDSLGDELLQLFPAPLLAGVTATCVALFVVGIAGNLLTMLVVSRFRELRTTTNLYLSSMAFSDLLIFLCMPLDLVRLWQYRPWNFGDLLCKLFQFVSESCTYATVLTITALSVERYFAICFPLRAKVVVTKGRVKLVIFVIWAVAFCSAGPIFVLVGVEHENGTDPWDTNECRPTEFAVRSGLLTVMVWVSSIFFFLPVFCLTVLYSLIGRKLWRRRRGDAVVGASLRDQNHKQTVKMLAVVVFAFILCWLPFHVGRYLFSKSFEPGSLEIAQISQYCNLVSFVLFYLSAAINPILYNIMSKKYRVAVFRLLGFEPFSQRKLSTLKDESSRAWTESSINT
compound,measurement,setting,value
O=C(/C=C/c1ccc(O)c(O)c1)OCCc1ccccc1 [CAPE],inhibition of ghrelin-induced IL-8 promoter activity,"[1]; NCM-GHS-R cells, 10 μg/ml CAPE 30 minutes pretreatment, ghrelin 10^−7 M 4 hours",inhibited ghrelin-induced IL-8 promoter activity
"His-D-Trp-D-Lys-Trp-D-Phe-Lys-NH2 (H[dW][dK]W[dF]K-NH2; N-terminus assumed; SMILES NCCCC[C@H](NC(=O)[C@@H](Cc1ccccc1)NC(=O)[C@H](Cc1c[nH]c2ccccc12)NC(=O)[C@@H](CCCCN)NC(=O)[C@@H](Cc1c[nH]c2ccccc12)NC(=O)[C@@H](N)Cc1c[nH]cn1)C(N)=O) [[D-lys-3]-GHRP-6, commercially available hexapeptide ghrelin receptor (GHS-R) antagonist]",inhibition of ghrelin-induced MAPK phosphorylation,"[2]; pretreated 10 minutes (anti-ghrelin IgG 2 and 5 μg/ml; [D-lys-3]-GHRP-6 1-20 nM), then rat ghrelin 5 minutes",inhibited ghrelin-induced MAPK phosphorylation in a dose-dependent manner
same,basal fluid secretion in buffer-exposed loops,[3],no significant effect
same,inhibition of toxin A-induced fluid secretion,[3],approximately 50%
same,block of food intake,food intake,efficiently block
same,block of GHS-R-induced calcium response,GHS-R,efficiently block
ghrelin,MAP kinase phosphorylation,"[2]; serum starved IEC-GHS-R cells, ghrelin 10^−7 M, various times",induces MAP kinase phosphorylation in a time-dependent manner
same,stimulation of IL-8 promoter activity,"[1]; NCM460 cells transiently transfected with pMMP-HA-GHSR, ghrelin for 6 hours",approximately 8 fold
same,IL-8 secretion in conditioned media,[4],significantly stimulates IL-8 secretion
same,IL-8 gene expression on stimulation,[5],does not mediate IL-8 gene expression
"ghrelin (species not stated, used on human NCM460-derived cells) (peptide)",IL-8 promoter activity (luciferase reporter),[6],8 fold
